According to US11667649B2, “Heteroaromatic macrocyclic ether chemotherapeutic agents” (Nuvalent, Inc., priority 2020, dated 2023):

Legend:
ROS1-wt kinase domain = target: T1, ROS1-wt kinase domain (Homo sapiens, UniProt P08922); assay: Biochemical kinase assay, ROS1-wt; details: 2 mM ATP substrate solution, read-out: Ki^app ROS1-wt
T1 construct: TRKA-wt (1 nM, BPS Bio, 40280) kinase domains in buffer; purchased Carna 08-163
Method: First, 250 nL of compound dissolved in DMSO (100-fold of the desired concentration) was dispensed into a 384-well plate. A 12.5 μL substrate solution containing ATP (2 mM) and fluorogenic phosphorylation substrate AQT0101 (26 μM for ALK and ROS1, AssayQuant) or AQT0104 (26 μM for TRKA, AssayQuant) in buffer (50 mM HEPES pH 7.5, 0.01% Brij-35, 0.5 mM EGTA, 10 mM MgCl2) was added and mixed thoroughly. Then, a 12.5 μL kinase solution containing ALK-wt (1.5 nM, Carna, 08-518), ALK ALK L1196M/G1202R (3 nM, SignalChem, A19-12NG), ROS1-wt (0.6 nM, Carna, 08-163), ROS1-G2032R (0.5 nM, SignalChem, R14-12BG), or TRKA-wt (1 nM, BPS Bio, 40280) kinase domains in buffer ([…] HEPES pH 7.5, 0.01% Brij-35, 2% glycerol, 0.4 mg/mL BSA, 0.5 mM EGTA, and 10 mM MgCl2) was added and mixed thoroughly. The plate was sealed and read by SpectraMax Paradigm at λ=485 nm every 2 minutes for 120 minutes at 30° C. Initial rates of reaction (v) were calculated from the change in fluorescence intensity over time during the initial, linear portion of the reaction. Finally, apparent inhibitory constants (Ki^app) were determined from regression of v and I (inhibitor concentration) to Morrison Equation (E=enzyme concentration): […]

TRKA-wt kinase domain = target: T2, TRKA-wt kinase domain (Homo sapiens, UniProt P04629); assay: Biochemical kinase assay, TRKA-wt; details: 2 mM ATP substrate solution, read-out: Ki^app TRKA-wt
T2 construct: TRKA-wt (1 nM, BPS Bio, 40280) kinase domains in buffer; purchased BPS Bio 40280
How it was run: (§1)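 Continuous fluorescence read (λ=485 nm, every 2 min, 120 min, 30° C). Substrate solution held 2 mM ATP and 26 μM AQT0101 (ROS1/ALK) or AQT0104 (TRKA). Kinase solution: ROS1-G2032R 0.5 nM, ROS1-wt 0.6 nM, TRKA 1 nM, ALK double mutant 3 nM. Initial linear rates fed a Morrison-equation fit giving Ki^app.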

[1] = target: T3, ROS1-G2032R kinase domain (Homo sapiens, UniProt P08922, G2032R); assay: Biochemical kinase assay, ROS1-G2032R; details: 2 mM ATP substrate solution, read-out: Ki^app ROS1-G2032R
T3 construct: TRKA-wt (1 nM, BPS Bio, 40280) kinase domains in buffer; purchased SignalChem R14-12BG
How it was run: as §1

ALK-wt kinase domain = target: T4, ALK-wt kinase domain (Homo sapiens, UniProt Q9UM73); assay: Biochemical kinase assay, ALK-wt; details: 2 mM ATP substrate solution, read-out: Ki^app ALK-wt
T4 construct: TRKA-wt (1 nM, BPS Bio, 40280) kinase domains in buffer; purchased Carna 08-518
How it was run: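 Compound in DMSO added first, then substrate solution (ATP 2 mM; AQT0101 or AQT0104, 26 μM; pH 7.5 HEPES, 10 mM MgCl2), then kinase solution with enzyme at 0.5–3 nM depending on construct. Kinetic read every 2 min for 120 min at 30° C; Ki^app by Morrison regression.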

[2] = target: T5, ALK L1196M/G1202R kinase domain (Homo sapiens, UniProt Q9UM73, G1202R/L1196M); assay: Biochemical kinase assay, ALK L1196M/G1202R; details: 2 mM ATP substrate solution, read-out: Ki^app ALK-L1196M-G1202R
T5 construct: TRKA-wt (1 nM, BPS Bio, 40280) kinase domains in buffer; purchased SignalChem A19-12NG
How it was run: as §1

Compound	Ki (ROS1-wt kinase domain)	Ki (TRKA-wt kinase domain)	Ki [1]	Ki (ALK-wt kinase domain)	Ki [2]
CC1Oc2cc(cnc2N)-c2c(cnn2C)Cc2cnn(C)c2-c2ccc(F)cc21 (stereo not drawn) [Compound 2]	< 50 nM	50 to 500 nM	< 50 nM	< 50 nM	50 to 500 nM
C[C@H]1Oc2cc(cnc2N)-c2c(cnn2C2CCC2)Cc2cnn(C)c2-c2ccc(F)cc21 [Compound 5]	< 50 nM	> 500 nM	< 50 nM	< 50 nM	< 50 nM
C[C@H]1Oc2cc(cnc2N)-c2c(cnn2CC2CC2)Cc2cccnc2-c2ccc(F)cc21 [Compound 137]	< 50 nM	50 to 500 nM	< 50 nM	< 50 nM	< 50 nM
Cc1nn(CC2CC2)c2c1Cc1cccnc1-c1ccc(F)cc1[C@@H](C)Oc1cc-2cnc1N [Compound 135]	< 50 nM	50 to 500 nM	< 50 nM	< 50 nM	< 50 nM
CCn1nc(OC)c2c1-c1cnc(N)c(c1)O[C@H](C)c1cc(F)ccc1-c1nn(C)cc1C2 [Compound 181]	< 50 nM	50 to 500 nM	< 50 nM	< 50 nM	< 50 nM
CCn1ncc2c1-c1cnc(N)c(c1)OCc1cc(F)ccc1-c1nn(C)cc1C2 [Compound 49]	< 50 nM	> 500 nM	50 to 500 nM	< 50 nM	50 to 500 nM
CCn1ncc2c1-c1cnc(N)c(c1)O[C@H](C)c1cc(F)ccc1-c1nn(C(F)F)cc1C2 [Compound 86]	< 50 nM	> 500 nM	< 50 nM	< 50 nM	50 to 500 nM
CCn1ncc2c1-c1ccc(F)cc1C(C)Oc1nc(cnc1N)-c1c(cnn1C)C2 (stereo not drawn) [Compound 165]	< 50 nM	50 to 500 nM	50 to 500 nM	< 50 nM	50 to 500 nM
Nc1ncc2cc1OCc1cc(F)ccc1-n1nc(C(F)F)cc1Cc1cnn(CC3CC3)c1-2 [Compound 138]	< 50 nM	> 500 nM	< 50 nM	< 50 nM	< 50 nM
CCn1ncc2c1-c1cnc(N)c(c1)O[C@H](C)c1cc(F)ccc1-c1nn(C)c(Cl)c1C2 [Compound 28]	< 50 nM	< 50 nM	< 50 nM	< 50 nM	< 50 nM
C[C@H]1Oc2cc(cnc2N)-c2c(C#N)cnn2Cc2ccnn2-c2ccc(F)cc21 [Compound 62]	< 50 nM	> 500 nM	50 to 500 nM	< 50 nM	< 50 nM
C[C@H]1Oc2cc(cnc2N)-c2c(C#N)noc2Cc2cn(C)nc2-c2ccc(F)cc21 [Compound 15]	< 50 nM	> 500 nM	< 50 nM	< 50 nM	< 50 nM
CCc1noc2c1-c1cnc(N)c(c1)O[C@H](C)c1cc(F)ccc1-c1nncn1C2 [Compound 120]	< 50 nM	50 to 500 nM	50 to 500 nM	< 50 nM	50 to 500 nM
C[C@H]1Oc2cc(cnc2N)-c2c(CC(F)F)nn(C)c2Cc2cc(C(F)F)nn2-c2ccc(F)cc21 [Compound 180]	< 50 nM	50 to 500 nM	< 50 nM	< 50 nM	< 50 nM
CCn1nc(OC)c2c1-c1cnc(N)c(c1)O[C@H](C)c1cc(F)ccc1-n1nc(C(F)F)cc1C2 [Compound 147]	< 50 nM	< 50 nM	< 50 nM	< 50 nM	< 50 nM
C[C@H]1Oc2cc(cnc2N)-c2c(nnn2CC2CC2)Cc2cc(F)cnc2-c2ccc(F)cc21 [Compound 106]	< 50 nM	50 to 500 nM	< 50 nM	< 50 nM	< 50 nM
CC1Oc2cc(cnc2N)-c2c(C#N)cnn2Cc2cnn(C)c2-c2ccc(F)cc21 (stereo not drawn) [Compound 60]	< 50 nM	> 500 nM	50 to 500 nM	< 50 nM	50 to 500 nM

Compound	Ki (ROS1-wt kinase domain)	Ki (TRKA-wt kinase domain)	Ki [1]	Ki (ALK-wt kinase domain)	Ki [2]
CCn1ncc2c1-c1cnc(N)c(c1)O[C@H](C)c1cc(F)ccc1-n1nc(C(F)F)cc1C2 [Compound 102]	< 50 nM	< 50 nM	< 50 nM	< 50 nM	< 50 nM
Nc1ncc2cc1OCc1cc(F)ccc1-n1nc(Cl)cc1Cc1nnn(CC3CC3)c1-2 [Compound 110]	< 50 nM	> 500 nM	< 50 nM	< 50 nM	< 50 nM
C[C@H]1Oc2cc(cnc2N)-c2c(C#N)nn(C)c2Cc2cc(Cl)nn2-c2ccc(F)cc21 [Compound 103]	< 50 nM	50 to 500 nM	< 50 nM	< 50 nM	< 50 nM
CC1Oc2cc(cnc2N)-c2c(cnn2C2CCC2)Cn2ccnc2-c2ccc(F)cc21 (stereo not drawn) [Compound 37]	< 50 nM	50 to 500 nM	< 50 nM	< 50 nM	< 50 nM
C[C@H]1Oc2cc(cnc2N)-c2c(C#N)ncn2Cc2cn(C)nc2-c2ccc(F)cc21 [Compound 13]	< 50 nM	> 500 nM	< 50 nM	< 50 nM	< 50 nM
CCn1ncc2c1-c1cnc(N)c(c1)O[C@H](C)c1cc(F)ccc1-n1nc(Br)cc1C2 [Compound 80]	< 50 nM	< 50 nM	< 50 nM	< 50 nM	< 50 nM
CCn1nnc2c1-c1cnc(N)c(c1)O[C@H](C)c1cc(F)ccc1-n1nc(C(F)(F)F)cc1C2 [Compound 107]	< 50 nM	50 to 500 nM	< 50 nM	< 50 nM	< 50 nM
CCn1ncc2c1-c1cnc(N)c(c1)OC(C)c1cc(F)ccc1-n1cncc1C2 (stereo not drawn) [Compound 38]	< 50 nM	> 500 nM	< 50 nM	< 50 nM	50 to 500 nM
CCn1ncc2c1-c1cnc(N)c(n1)OC(C)c1cc(F)ccc1-c1c(cnn1C)C2 (stereo not drawn) [Compound 164]	< 50 nM	> 500 nM	< 50 nM	< 50 nM	50 to 500 nM
C[C@H]1Oc2cc(cnc2N)-c2c(C#N)ncn2Cc2cc(F)cnc2-c2ccc(F)cc21 [Compound 63]	< 50 nM	> 500 nM	< 50 nM	< 50 nM	< 50 nM
C[C@H]1Oc2cc(cnc2N)-c2c(nn(C)c2C#N)Cc2cccnc2-c2ccc(F)cc21 [Compound 112]	< 50 nM	50 to 500 nM	< 50 nM	< 50 nM	< 50 nM
C[C@H]1Oc2cc(cnc2N)-c2c(C#N)cnn2Cc2cccnc2-c2ccc(F)cc21 [Compound 14]	< 50 nM	50 to 500 nM	< 50 nM	< 50 nM	< 50 nM
CCn1ncc2c1-c1cnc(N)c(c1)OCc1cc(F)ccc1-c1nccn1C2 [Compound 34]	< 50 nM	> 500 nM	50 to 500 nM	< 50 nM	< 50 nM
C[C@H]1Oc2cc(cnc2N)-c2c(nnn2CC2CC2)Cc2cc(Cl)nn2-c2ccc(F)cc21 [Compound 108]	< 50 nM	50 to 500 nM	< 50 nM	< 50 nM	< 50 nM
C[C@H]1Oc2cc(cnc2N)-c2c(C#N)nn(C)c2Cc2cc(C(F)(F)F)nn2-c2ccc(F)cc21 [Compound 104]	< 50 nM	> 500 nM	< 50 nM	< 50 nM	< 50 nM
CCn1nnc2c1-c1cnc(N)c(c1)O[C@H](C)c1cc(F)ccc1-c1sncc1C2 [Compound 93]	< 50 nM	50 to 500 nM	< 50 nM	< 50 nM	< 50 nM
